# Reference: US20060063754A1, “Methods of treating a sleep disorder” (priority 2004, published 2006)
# Where two headings read alike, the source gives them in different places.
# What was measured:
# [1] = biological target: hERG channel (Homo sapiens, UniProt Q12809); experiment: hERG channel current block, whole cell patch clamp in HEK293 cells; assay type: cell-based; settings: HEK293 cells expressing hERG, room temperature
# Procedure: In the hERG assay, hERG channels are expressed in a human embryonic kidney cell line (HEK293) that lacks endogenous IKr. […] (See, Rampe 1997).
# In one embodiment of the hERG assay, the positive control (i.e., reference compound) is terfenadine (Sigma, St. Louis Mo.), which has been shown, at a concentration of 60 nM, to block hERG current by approximately 75%. Test compounds are delivered in HEPES-buffered physiological saline (HB-PS)+0.1% dimethyl sulfoxide (DMSO). Each test compound is applied at a concentration of 10 μM to the HEK293 cells expressing hERG (n≧3, where n=the number of cells). Cells are exposed to the test compound for the time necessary to reach steady-state block, but not longer than 10 minutes. The positive control ([…] terfenadine) is applied to two cells (n≧2).
# The hERG-exposed cells are then transferred to the recording chamber and superfused with HB-PS solution. The pipette solution for whole cell recordings includes potassium aspartate (130 mM), MgCl2 (5 mM), EGTA (5 mM), ATP (4 mM), and HEPES (10 mM) at a pH adjusted to 7.2 with KOH. Onset and steady state block of hERG current due to the test compound are measured using a pulse pattern with fixed amplitudes (depolarization: +20 mV for 2 seconds; repolarization: −50 mV for 2 seconds), repeated at 10 second intervals, from a holding potential of −80 mV. Peak tail current is measured during the 2 second step to −50 mV. A steady state is maintained for at least 30 seconds before applying the test compound or positive control compound. Peak tail currents are measured until a new steady state is achieved.
# The in vitro effects of the disclosed sleep-inducing agents on the hERG (human ether-à-go-go-related gene) channel current (IKr, the rapidly activating, delayed rectifier cardiac potassium current) were determined by ChanTest (Cleveland, Ohio) according to Standard Operating Procedures of ChanTest.
# All chemicals used were purchased from Sigma (St. Louis, Mo.) unless otherwise noted and were of ACS reagent grade purity or higher. […]
# [2] = tested on: male Wistar rats; experiment: Sleep-wakefulness monitoring (SCORE-2000, EEG/EMG) in rats; assay type: in vivo, rat; settings: oral bolus at CT-18, male Wistar rats
# Procedure: Sleep-wakefulness, locomotor activity and body temperature are monitored in male Wistar rats treated with a test compound initially at a concentration of 10 mg/kg. Higher and lower doses are assayed for select compounds (e.g., as high as 45 mg/kg, and as low as necessary to establish a no-effect dose). Treatments are administered at CT-18, the peak of the activity dominated period (6 hours after lights-off), and produce soporific (sleep-inducing) effects characterized by increased non-REM sleep time, increased sleep continuity, but without evidence of REM sleep inhibition or rebound insomnia.
# Sleep-wakefulness, locomotor activity and body temperature were monitored in vivo with certain of the disclosed sleep-inducing agents (e.g., Compounds 1 and 2) and other compounds described herein. Adult, male Wistar rats (250 g at time of surgery, Charles River Laboratories, Wilmington Mass.) were anesthetized (2% isoflourane in medical grade oxygen) and surgically prepared with a cranial implant to permit chronic electro-encephalogram (EEG) and electromyogram (EMG) recording. Body temperature and locomotor activity were monitored via a miniature transmitter (Mini-Mitter, Bend, Oreg.) surgically placed in the abdomen. The cranial implant consisted of stainless steel screws (two frontal (+3.2 AP from bregma, ±2.0 ML) and two occipital (−6.9 AP, ±5.5 ML)) for EEG recording. Two Teflon®-coated stainless steel wires were positioned under the nuchal trapezoid muscles for EMG recording. All leads were soldered to a miniature connector prior to surgery, and gas sterilized in ethylene oxide. The implant assembly was affixed to the skull with dental acrylic. A minimum of three weeks was allowed for surgical recovery.
# Each rat was permanently housed in its own individual recording cage located within separate, ventilated compartments of custom-designed stainless steel cabinets. Each cage was enhanced with a filter-top riser and low-torque swivel-commutator. Food and water were available ad libitum. A 24-hr light-dark cycle (12 hours light, 12 hours dark) was maintained throughout the study. Animals were undisturbed for at least 48 hours before and after treatments.
# Sleep and wakefulness were determined using “SCORE-2000™” (Hypnion, Worcester, Mass.)—an internet-based sleep-wake and physiological monitoring system. The system monitored amplified EEG (bandpass 1-30 Hz), integrated EMG (bandpass 10-100 Hz), body temperature and non-specific locomotor activity (LMA) via telemetry, and drinking activity, continuously and simultaneously. Arousal states were classified on-line as non-REM (NREM) sleep, REM sleep, wake, or theta-dominated wake every 10 seconds. Total drinking and locomotor activity counts, and body temperature were quantitated and recorded each minute, using EEG feature extraction and pattern-matching algorithms. […] The classification algorithm used individually-taught EEG-arousal-state templates, plus EMG criteria to differentiate REM sleep from theta-dominated wakefulness, plus behavior-dependent contextual rules (e.g., if the animal was drinking, it is awake). Drinking and locomotor activity intensity (LMA) were recorded every 10 seconds, while body temperature was recorded each minute. Locomotor activity was detected by a telemetry receiver (Mini-Mitter) beneath the cage. Telemetry measures (LMA and body temperature) were not part of the scoring algorithm; thus, sleep-scoring and telemetry data were independent measures.
# Compounds were administered at CT-18, the peak of the activity-dominated period, sufficient time was allowed to view the time course of the treatment effect before lights-on (6 hours post-treatment). Compounds were suspended in sterile 0.25% or 0.5% methylcellulose (1-2 ml/kg). Treatments were administered orally as a bolus.
# A parallel group study design was employed. […]
# [3] = biological target: alpha 1 receptor; experiment: alpha 1 receptor binding assay; settings: read-out: Ki Alpha1
# Procedure: (§1) Binding assays were performed using Compound 1 and 2 in competitive binding assays with known standards for the H1 histamine receptor, and the M1, M2, and M3 muscarinic receptors, alpha 1 and alpha 2 receptors, and D1 and D2 receptors.
# [4] = biological target: T1, human recombinant M3 muscarinic receptor expressed in CHO cells (Homo sapiens, UniProt P20309); experiment: M3 muscarinic receptor binding assay
# T1 construct: purchased PerkinElmer, Inc., Wellesley, Mass; host or cells: CHO cells
# [5] = biological target: T2, human recombinant M2 muscarinic receptor expressed in CHO cells (Homo sapiens, UniProt P08172); experiment: M2 muscarinic receptor binding assay
# T2 construct: purchased PerkinElmer, Inc., Wellesley, Mass; host or cells: CHO cells
# T2 sequence (P08172 1-466): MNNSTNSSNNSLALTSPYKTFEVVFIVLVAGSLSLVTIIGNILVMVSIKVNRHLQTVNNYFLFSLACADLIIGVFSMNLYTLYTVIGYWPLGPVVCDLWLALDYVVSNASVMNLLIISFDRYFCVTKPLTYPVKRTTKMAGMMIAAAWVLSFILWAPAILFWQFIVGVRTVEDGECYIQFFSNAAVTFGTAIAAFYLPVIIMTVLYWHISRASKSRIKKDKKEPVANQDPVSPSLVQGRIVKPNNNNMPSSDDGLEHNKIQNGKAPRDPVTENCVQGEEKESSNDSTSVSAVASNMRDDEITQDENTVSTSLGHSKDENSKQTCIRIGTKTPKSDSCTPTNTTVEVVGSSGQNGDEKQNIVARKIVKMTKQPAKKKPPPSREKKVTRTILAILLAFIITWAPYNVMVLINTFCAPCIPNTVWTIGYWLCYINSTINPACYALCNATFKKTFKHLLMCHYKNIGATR
# [6] = biological target: Dopamine, D1 (human recombinant) (Homo sapiens, UniProt P21728); experiment: Dopamine D1 binding assay
# Procedure: Dopamine, D1 (human recombinant) binding assay was performed according to published procedures. See, e.g., Jarvie, et al. J. Recept Res., 13(1-4): 573-90 (1993); and Billard, et al. Life Sciences, 35(18): 1885-93 (1984), with modifications
# [7] = biological target: T3, human recombinant M1 muscarinic receptor expressed in CHO cells (Homo sapiens, UniProt P11229); experiment: M1 muscarinic receptor binding assay ([3H]-scopolamine, N-methyl chloride)
# T3 construct: purchased PerkinElmer, Inc., Wellesley, Mass; host or cells: CHO cells
# T3 sequence (P11229 1-460): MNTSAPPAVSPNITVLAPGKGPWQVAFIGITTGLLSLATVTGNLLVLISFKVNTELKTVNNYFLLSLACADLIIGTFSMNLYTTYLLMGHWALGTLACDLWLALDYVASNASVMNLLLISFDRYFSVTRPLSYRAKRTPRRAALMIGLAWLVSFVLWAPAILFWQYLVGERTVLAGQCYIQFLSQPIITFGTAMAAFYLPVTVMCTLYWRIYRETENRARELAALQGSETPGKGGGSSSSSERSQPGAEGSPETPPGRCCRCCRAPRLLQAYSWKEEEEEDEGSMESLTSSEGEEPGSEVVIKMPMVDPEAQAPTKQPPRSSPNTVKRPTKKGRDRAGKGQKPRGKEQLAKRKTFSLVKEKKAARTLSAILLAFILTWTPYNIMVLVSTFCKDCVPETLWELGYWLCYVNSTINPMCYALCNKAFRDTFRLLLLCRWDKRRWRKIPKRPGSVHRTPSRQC
# [8] = biological target: T4, H1 histamine receptor (Bos taurus, UniProt P30546); experiment: H1 histamine receptor competitive binding assay ([3H]pyrilamine); parameters: species or system bovine
# T4 construct: the receptors were obtained from bovine cerebellar membrane tissue; from tissue; host or cells: bovine cerebellar membranes
# [9] = biological target: alpha 2 receptor; experiment: alpha 2 receptor binding assay; settings: read-out: Ki Alpha2
# Procedure: as §1
# [10] = biological target: D2 receptor (Homo sapiens, UniProt P14416); experiment: Dopamine D2 binding assay
# [11] = biological target: T3, human recombinant M1 muscarinic receptor expressed in CHO cells; settings: reference compounds; read-out: Ki of reference compounds in M1 binding assay; cited from earlier work
# Sequence of hERG channel (Q12809 whole entry): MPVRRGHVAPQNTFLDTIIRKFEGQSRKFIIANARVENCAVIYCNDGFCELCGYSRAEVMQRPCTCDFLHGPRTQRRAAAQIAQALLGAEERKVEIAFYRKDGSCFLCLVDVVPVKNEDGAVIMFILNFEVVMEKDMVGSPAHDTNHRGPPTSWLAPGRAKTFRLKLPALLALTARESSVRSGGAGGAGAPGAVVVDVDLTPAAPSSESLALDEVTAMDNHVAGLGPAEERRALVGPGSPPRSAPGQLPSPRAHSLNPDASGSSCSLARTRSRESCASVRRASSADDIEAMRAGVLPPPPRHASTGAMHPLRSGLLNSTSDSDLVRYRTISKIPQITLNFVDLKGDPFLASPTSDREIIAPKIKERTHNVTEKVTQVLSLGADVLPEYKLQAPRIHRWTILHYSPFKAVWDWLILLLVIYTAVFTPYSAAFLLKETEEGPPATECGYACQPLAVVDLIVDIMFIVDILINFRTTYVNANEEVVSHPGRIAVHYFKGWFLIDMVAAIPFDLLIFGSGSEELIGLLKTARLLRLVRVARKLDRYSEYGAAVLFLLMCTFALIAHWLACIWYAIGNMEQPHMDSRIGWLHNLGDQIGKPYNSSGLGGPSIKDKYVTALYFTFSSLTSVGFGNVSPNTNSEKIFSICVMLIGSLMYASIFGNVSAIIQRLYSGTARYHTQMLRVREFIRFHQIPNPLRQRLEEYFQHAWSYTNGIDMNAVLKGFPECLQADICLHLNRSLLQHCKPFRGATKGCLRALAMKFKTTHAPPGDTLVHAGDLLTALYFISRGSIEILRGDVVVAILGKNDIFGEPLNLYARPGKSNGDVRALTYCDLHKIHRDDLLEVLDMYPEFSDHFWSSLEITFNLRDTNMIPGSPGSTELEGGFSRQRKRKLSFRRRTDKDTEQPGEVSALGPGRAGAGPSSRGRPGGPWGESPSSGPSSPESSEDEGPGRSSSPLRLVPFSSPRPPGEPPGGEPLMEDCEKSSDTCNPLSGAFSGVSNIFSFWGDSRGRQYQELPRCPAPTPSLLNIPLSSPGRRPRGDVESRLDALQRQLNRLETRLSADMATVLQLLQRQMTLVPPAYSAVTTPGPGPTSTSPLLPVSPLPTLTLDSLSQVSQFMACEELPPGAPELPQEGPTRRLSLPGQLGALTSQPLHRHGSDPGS
# T4 sequence (P30546 whole entry): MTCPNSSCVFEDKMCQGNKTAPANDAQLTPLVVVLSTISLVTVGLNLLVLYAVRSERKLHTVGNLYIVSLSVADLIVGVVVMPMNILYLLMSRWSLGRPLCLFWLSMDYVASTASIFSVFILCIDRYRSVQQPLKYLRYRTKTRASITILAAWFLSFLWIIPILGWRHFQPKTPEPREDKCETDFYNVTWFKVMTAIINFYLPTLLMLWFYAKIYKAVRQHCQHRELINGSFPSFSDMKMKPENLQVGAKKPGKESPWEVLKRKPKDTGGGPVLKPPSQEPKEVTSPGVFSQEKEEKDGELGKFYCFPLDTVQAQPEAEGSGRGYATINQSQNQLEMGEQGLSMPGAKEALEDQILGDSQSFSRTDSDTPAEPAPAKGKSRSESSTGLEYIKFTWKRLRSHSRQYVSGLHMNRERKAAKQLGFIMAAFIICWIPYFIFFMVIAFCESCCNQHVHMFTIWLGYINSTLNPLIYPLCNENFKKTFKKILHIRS
# T1 sequence (P20309 whole entry): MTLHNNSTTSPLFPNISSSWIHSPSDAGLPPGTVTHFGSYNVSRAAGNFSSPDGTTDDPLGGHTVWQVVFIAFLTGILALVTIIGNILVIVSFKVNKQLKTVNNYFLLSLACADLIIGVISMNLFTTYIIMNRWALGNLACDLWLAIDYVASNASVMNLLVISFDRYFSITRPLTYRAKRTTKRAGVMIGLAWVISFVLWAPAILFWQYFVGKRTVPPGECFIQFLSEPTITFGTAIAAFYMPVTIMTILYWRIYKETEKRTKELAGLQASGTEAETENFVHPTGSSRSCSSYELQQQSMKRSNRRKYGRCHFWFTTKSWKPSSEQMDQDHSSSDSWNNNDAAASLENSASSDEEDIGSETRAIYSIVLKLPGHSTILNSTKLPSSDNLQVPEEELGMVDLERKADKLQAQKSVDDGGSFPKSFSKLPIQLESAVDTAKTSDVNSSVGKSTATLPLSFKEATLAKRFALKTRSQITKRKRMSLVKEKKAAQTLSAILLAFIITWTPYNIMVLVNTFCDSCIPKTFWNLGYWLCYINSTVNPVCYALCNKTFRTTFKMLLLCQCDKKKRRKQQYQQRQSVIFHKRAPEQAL
# Sequence of D2 receptor (P14416 whole entry): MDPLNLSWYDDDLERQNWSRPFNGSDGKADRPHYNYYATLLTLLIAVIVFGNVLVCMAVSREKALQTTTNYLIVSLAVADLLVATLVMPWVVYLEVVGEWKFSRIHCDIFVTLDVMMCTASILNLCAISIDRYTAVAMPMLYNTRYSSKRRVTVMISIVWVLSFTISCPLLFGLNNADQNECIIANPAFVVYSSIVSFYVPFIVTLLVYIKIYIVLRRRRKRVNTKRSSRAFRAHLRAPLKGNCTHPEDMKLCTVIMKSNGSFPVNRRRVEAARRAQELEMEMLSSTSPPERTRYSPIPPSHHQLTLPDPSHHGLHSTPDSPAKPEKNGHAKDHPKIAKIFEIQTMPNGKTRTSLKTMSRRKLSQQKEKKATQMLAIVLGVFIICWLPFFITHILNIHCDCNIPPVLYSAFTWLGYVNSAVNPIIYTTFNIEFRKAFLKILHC
# Sequence of Dopamine, D1 (human recombinant) (P21728 whole entry): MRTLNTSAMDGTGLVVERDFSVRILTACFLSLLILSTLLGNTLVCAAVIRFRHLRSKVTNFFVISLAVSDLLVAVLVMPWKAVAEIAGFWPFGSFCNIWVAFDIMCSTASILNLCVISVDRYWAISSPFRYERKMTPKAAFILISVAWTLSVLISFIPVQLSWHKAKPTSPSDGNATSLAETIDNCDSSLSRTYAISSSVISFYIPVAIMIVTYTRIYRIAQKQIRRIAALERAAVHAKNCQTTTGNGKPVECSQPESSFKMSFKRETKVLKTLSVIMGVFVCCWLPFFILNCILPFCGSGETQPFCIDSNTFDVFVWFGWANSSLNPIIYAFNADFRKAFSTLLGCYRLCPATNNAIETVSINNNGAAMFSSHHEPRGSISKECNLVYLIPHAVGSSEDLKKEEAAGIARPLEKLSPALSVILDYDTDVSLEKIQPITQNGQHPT
smiles,measurement,setting,value
O=C(O)CCN1CCN(C2=Nc3ccccc3Sc3ccccc32)CC1 [Compound 3],hERG at 10 micromolar (% blocking of the hERG channel),[1],0.80%
same,LUSB (longest uninterrupted sleep bout),[2]; dose 3 mg/kg,6 ± 1.9 min
same,LUSB (longest uninterrupted sleep bout),[2]; dose 10 mg/kg,5 ± 2.0 min
same,NREM,[2]; dose 10 mg/kg,43 ± 6 min
O=C(O)CCN1CCN(C2=Nc3ccccc3Oc3ccccc32)CC1 [Compound 1],Ki,[3],> 10 µM
same,Ki,[4],> 10 µM
same,Ki,[5],> 10 µM
same,Ki,[6],1.13 µM
same,Ki,[7],> 10 µM
same,hERG at 10 micromolar (% blocking of the hERG channel),[1],0.70%
same,Ki,[8],0.041 µM
same,LUSB (longest uninterrupted sleep bout),[2]; dose 10 mg/kg,13.2 ± 3.3 min
same,NREM,[2]; dose 10 mg/kg,22 ± 6 min
same,Ki,[9],> 10 µM
same,Ki,[10],> 10 µM
O=C(O)CCCN1CCN(C2=Nc3ccccc3Oc3ccccc32)CC1 [Compound 2],Ki,[3],3.27 µM
same,Ki,[4],> 10 µM
same,Ki,[5],> 10 µM
same,Ki,[6],6.24 µM
same,Ki,[7],> 10 µM
same,hERG at 10 micromolar (% blocking of the hERG channel),[1],2.60%
same,Ki,[8],0.0542 µM
same,LUSB (longest uninterrupted sleep bout),[2]; dose 3 mg/kg,3.8 ± 2.2 min
same,LUSB (longest uninterrupted sleep bout),[2]; dose 10 mg/kg,7.2 ± 2.0 min
same,NREM,[2]; dose 10 mg/kg,38 ± 6 min
same,Ki,[9],> 10 µM
same,Ki,[10],> 10 µM
C[N+]1(C)CCC(OC(=O)C(c2ccccc2)c2ccccc2)CC1 [4-DAMP methiodide],Ki,[11],0.00027 µM
